Results taken from article PMC11578424, “Discovery of novel 2,4-diarylaminopyrimidine hydrazone derivatives as potent anti-thyroid cancer agents capable of inhibiting FAK” (Journal of Enzyme Inhibition and Medicinal Chemistry, 2024).
Entries after “also recorded” stand apart in the source; their conditions may differ.

Experiments:
[1] = tested on: thyroid cancer cells TPC-1; test: MTT antiproliferative assay; format: cell-based
Description: Thyroid cancer cells TCP-1 were provided by Wuhan Servicebio Co., Ltd. TCP-1 cells are cultured in RPMI-1640 medium supplemented with 10% foetal bovine serum (FBS), 100 U/mL penicillin, and 0.1 mg/mL streptomycin. All cells are maintained in a humidified incubator at 37 °C with 5% CO2.
The TCP-1 cell line is seeded into a 96-well plate and incubated under conditions of 37 °C and 5% CO2. After the cells adhere, different concentrations of compounds are added and the incubation continues for 48 h under the same conditions. Subsequently, MTT reagent is added to the medium and the incubation is continued for an additional 4 h at 37 °C. After the incubation, the medium is aspirated, and 150 μL of DMSO solution is added to dissolve the purple-blue crystals by shaking. The absorbance of the solution is measured at a wavelength of 490 nm. The IC50 value of the compounds is calculated using SPSS software version 20.0.

FAK [2] = molecular target: T1, FAK (Homo sapiens, UniProt Q05397); test: Kinase inhibition assay (Kinase-Glo Plus); format: biochemical; conditions: 10 µM ATP
Description: It measures kinase activity by quantitating the amount of ATP remaining in solution following a kinase reaction. The luminescent signal from the assay is correlated with the amount of ATP present and is inversely correlated with the amount of kinase activity.

ALK = ALK (Homo sapiens, UniProt Q9UM73); test: Kinase inhibition assay (Kinase-Glo Plus); format: biochemical; conditions: Figure 3A; 10 µM ATP; read-out: IC50 (nmol/L) ALK
Description: (§1) The 50 µl reaction mixture contains 40 mM Tris, pH 7.4, 10 mM MgCl2, 0.1 mg/ml BSA, 1 mM DTT, 10 µM ATP, Kinase and the enzyme substrate. The compound was diluted in 10% DMSO and 5 µl of the dilution was added to a 50 µl reaction so that the final concentration of DMSO is 1% in all of the reactions. The assay was performed using a Kinase-Glo Plus luminescence kinase assay kit. It measures kinase activity by quantitating the amount of ATP remaining in solution following a kinase reaction. The luminescent signal from the assay is correlated with the amount of ATP present and is inversely correlated with the amount of kinase activity. The IC50 values were calculated using nonlinear regression with normalised dose-response fit using Prism GraphPad software.

EGFR = EGFR (Homo sapiens, UniProt P00533); test: Kinase inhibition assay (Kinase-Glo Plus); format: biochemical; conditions: Figure 3A; 10 µM ATP; read-out: IC50 (nmol/L) EGFR
Description: as §1

ROS1 = ROS1 (Homo sapiens, UniProt P08922); test: Kinase inhibition assay (Kinase-Glo Plus); format: biochemical; conditions: Figure 3A; 10 µM ATP; read-out: IC50 (nmol/L) ROS1
Description: as §1

FAK [3] = molecular target: T1, FAK; test: Western blot of FAK and its phosphorylation sites in TPC-1 cells; format: cell-based; conditions: TPC-1 cells, 50, 100 and 200 nmol/L, 48 h
Description: Different concentrations of compound 14f are applied to TCP-1 cells for 48 h, after which the cells are collected and lysed in RIPA lysis buffer (Solarbio, R0010). Protein concentration is determined using the BCA Protein Concentration Assay Kit (Solarbio, PC0020). Proteins were denatured using 4X SDS-PAGE loading buffer (Solarbio, P1016) at 100 °C for 10 min. The denatured protein samples are separated by SDS-PAGE electrophoresis. Proteins are transferred from the gel to nitrocellulose (NC) membrane (Pall Corporation, P/N 66485) and blocked with 5% non-fat milk for 1 h at room temperature. After washing with TBST, the primary antibody is added and incubated overnight at 4 °C. The membrane is washed with TBST and then incubated with the secondary antibody at room temperature for 1–2 h. The membrane is washed again with TBST, and the protein bands are visualised using an ECL (Solarbio, PE0010) ultra-sensitive luminescent reagent, followed by imaging with a chemiluminescence imaging analyser (Cytiva, […] ImageQuant 800, JPN). The ladder used for Western Blot experiments was purchased from Thermo Scientific (Thermo Scientific, catalog number:26616). […]

[4] = tested on: thyroid cancer cells TPC-1; test: EdU staining assay; format: cell-based; conditions: TPC-1 cells, 48 h
Description: TCP-1 cells are treated with compound 14f, followed by the addition of an equal volume of 1X EdU working solution to the drug-containing medium, and incubated under conditions of 37 °C and 5% CO2 for 4 h. After incubation, the cells are fixed with 4% paraformaldehyde for 15 min. The fixative is then removed, and the cells are permeabilized with PBS containing 0.3% Triton X-100 at room temperature. After washing, the Click reaction working solution is added and incubated at 37 °C for 30 min. The cells are then washed and stained with a prepared Hoechst staining solution for 10 min to stain the cell nuclei. After staining, the staining solution is removed, the cells are washed, and images are captured and saved using a fluorescence microscope.

TPC-1 cells [5] = test: Colony formation assay; format: cell-based; conditions: 5-day treatment
Description: TCP-1 cells are plated at a density of 10,000 to 20,000 cells per well in a 6-well plate. After cell adhesion, the cells are treated with different concentrations of compound 14f and cultured for 5 days in an incubator. At the end of the culture period, the medium is aspirated, and the cells are washed three times with PBS. The cells are then fixed with 4% paraformaldehyde for 20 min at room temperature. After fixation, the fixative is removed, and the cells are stained with 0.1% crystal violet at room temperature for 20 min. Following staining, the cells are rinsed with PBS until the purple colour is completely washed away, and then air-dried for image acquisition.

TPC-1 cells [6] = test: Cell cycle distribution; format: cell-based; conditions: 48-h treatment
[7] = tested on: thyroid cancer cells TPC-1; test: Wound healing assay; format: cell-based; conditions: TPC-1 cells, various durations
Description: TCP-1 cells are seeded into a 6-well cell culture plate and cultured in an incubator at 37 °C with 5% CO2. Once the cells uniformly cover the bottom of the well, a vertical line is drawn in the centre of each well to mark the initial scratch. Fresh medium is replaced and different concentrations of 14f are added. Photographs are taken to document the healing at 0 h, 24 h, 36 h and 48 h post-scratch. Images are processed using ImageJ software. Data analysis is performed using GraphPad Prism software version 8.0.

[8] = tested on: thyroid cancer cells TPC-1; test: Transwell migration assay; format: cell-based; conditions: TPC-1 cells, 48 h
Description: A 24-well plate is filled with 500 μL of RPMI-1640 medium containing 20% serum per well, and Transwell chambers are placed in the wells. TCP-1 cells are resuspended in serum-free medium and mixed with compound 14f, then added to the upper chamber of the Transwell chambers. The 24-well plates are incubated at 37 °C with 5% CO2 for 48 h. After incubation, the plates are removed, and the chambers are immersed in 4% paraformaldehyde and fixed at room temperature for 10 min. Following fixation, 0.1% crystal violet staining solution is added to the 24-well plates, and the chambers are stained at room temperature for 30 min. After staining, the plates are washed, the upper layer of cells is gently wiped off with a cotton swab, and the chambers are air-dried. Images are captured using a microscope.

T1 sequence (Q05397 whole entry, species assumed): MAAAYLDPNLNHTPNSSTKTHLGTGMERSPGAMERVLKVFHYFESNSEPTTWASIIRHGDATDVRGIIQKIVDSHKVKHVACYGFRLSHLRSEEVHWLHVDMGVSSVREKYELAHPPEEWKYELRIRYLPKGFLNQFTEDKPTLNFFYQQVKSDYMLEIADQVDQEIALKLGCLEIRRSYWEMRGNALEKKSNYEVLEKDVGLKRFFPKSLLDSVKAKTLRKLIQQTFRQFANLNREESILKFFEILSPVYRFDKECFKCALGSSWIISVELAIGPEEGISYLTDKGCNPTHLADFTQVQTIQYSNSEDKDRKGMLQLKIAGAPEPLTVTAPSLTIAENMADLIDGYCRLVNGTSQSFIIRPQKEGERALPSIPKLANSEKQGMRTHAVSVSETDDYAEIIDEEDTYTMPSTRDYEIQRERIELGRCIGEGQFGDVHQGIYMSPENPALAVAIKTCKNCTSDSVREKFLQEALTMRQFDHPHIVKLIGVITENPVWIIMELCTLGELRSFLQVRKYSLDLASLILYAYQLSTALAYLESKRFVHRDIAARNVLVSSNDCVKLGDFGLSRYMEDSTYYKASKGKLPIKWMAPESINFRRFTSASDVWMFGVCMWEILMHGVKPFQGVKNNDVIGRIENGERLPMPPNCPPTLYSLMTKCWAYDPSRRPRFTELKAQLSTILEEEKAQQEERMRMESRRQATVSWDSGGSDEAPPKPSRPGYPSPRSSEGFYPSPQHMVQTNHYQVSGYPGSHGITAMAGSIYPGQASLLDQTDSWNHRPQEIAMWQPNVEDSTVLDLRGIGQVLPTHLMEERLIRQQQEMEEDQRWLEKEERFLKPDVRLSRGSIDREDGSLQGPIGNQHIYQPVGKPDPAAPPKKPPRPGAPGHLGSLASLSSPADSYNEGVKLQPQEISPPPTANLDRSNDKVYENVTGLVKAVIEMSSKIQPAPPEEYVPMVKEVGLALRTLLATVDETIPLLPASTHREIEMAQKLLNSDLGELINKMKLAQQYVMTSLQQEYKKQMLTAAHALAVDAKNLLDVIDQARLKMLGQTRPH
ALK, sequence (Q9UM73 19-1620, species assumed): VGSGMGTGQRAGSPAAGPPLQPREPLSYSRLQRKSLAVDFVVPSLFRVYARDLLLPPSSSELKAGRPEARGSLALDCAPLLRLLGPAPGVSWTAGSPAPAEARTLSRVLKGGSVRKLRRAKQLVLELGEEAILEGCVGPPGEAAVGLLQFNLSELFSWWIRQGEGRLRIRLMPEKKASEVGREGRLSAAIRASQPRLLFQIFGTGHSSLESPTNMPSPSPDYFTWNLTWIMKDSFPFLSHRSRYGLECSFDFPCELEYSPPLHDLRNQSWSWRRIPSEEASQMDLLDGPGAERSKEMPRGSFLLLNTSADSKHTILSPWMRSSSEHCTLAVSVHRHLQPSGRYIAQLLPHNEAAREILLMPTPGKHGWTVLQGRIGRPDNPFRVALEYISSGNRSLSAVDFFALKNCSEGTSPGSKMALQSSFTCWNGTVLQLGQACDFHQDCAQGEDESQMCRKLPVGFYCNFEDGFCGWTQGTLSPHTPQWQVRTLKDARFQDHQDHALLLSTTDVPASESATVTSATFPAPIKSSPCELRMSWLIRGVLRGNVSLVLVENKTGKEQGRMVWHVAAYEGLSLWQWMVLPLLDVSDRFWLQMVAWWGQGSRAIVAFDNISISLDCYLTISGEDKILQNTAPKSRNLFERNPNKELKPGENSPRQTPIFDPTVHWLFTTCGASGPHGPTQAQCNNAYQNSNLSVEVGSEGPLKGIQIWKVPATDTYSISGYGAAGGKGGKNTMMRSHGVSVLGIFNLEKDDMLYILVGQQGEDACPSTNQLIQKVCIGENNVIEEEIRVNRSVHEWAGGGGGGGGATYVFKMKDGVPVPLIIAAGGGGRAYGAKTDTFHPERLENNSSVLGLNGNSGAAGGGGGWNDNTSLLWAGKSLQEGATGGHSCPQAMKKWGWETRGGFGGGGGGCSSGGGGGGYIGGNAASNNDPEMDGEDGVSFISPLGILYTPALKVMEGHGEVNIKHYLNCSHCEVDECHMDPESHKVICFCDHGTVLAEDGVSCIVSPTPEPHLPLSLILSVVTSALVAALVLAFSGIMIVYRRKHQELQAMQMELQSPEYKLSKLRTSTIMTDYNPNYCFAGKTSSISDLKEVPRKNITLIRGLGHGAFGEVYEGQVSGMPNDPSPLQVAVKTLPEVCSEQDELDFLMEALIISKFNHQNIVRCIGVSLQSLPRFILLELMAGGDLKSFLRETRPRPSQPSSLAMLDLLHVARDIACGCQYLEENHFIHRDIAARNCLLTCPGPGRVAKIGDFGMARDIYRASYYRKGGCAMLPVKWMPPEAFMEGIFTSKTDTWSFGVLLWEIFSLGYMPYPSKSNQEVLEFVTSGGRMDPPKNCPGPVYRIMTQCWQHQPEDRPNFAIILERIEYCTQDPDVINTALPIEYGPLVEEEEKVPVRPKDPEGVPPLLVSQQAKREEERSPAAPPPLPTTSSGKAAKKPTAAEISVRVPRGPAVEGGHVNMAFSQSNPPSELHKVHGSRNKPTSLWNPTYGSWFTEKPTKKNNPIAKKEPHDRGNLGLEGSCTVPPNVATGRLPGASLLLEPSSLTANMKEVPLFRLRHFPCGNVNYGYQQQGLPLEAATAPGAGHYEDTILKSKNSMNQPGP
ROS1, sequence (P08922 1883-2347 limits assumed): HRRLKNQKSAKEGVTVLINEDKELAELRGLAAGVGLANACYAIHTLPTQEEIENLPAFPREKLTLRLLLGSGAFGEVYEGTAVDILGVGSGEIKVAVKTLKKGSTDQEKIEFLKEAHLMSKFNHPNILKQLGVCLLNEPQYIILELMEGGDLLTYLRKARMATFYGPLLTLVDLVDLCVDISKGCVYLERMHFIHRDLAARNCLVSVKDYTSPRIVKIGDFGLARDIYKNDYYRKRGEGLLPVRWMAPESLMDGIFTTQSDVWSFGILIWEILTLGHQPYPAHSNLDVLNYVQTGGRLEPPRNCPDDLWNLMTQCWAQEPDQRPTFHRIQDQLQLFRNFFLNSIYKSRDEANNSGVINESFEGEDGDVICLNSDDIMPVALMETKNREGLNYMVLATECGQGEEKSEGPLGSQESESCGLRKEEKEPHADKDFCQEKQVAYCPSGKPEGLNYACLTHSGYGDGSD
EGFR, sequence (P00533 25-1210, species assumed): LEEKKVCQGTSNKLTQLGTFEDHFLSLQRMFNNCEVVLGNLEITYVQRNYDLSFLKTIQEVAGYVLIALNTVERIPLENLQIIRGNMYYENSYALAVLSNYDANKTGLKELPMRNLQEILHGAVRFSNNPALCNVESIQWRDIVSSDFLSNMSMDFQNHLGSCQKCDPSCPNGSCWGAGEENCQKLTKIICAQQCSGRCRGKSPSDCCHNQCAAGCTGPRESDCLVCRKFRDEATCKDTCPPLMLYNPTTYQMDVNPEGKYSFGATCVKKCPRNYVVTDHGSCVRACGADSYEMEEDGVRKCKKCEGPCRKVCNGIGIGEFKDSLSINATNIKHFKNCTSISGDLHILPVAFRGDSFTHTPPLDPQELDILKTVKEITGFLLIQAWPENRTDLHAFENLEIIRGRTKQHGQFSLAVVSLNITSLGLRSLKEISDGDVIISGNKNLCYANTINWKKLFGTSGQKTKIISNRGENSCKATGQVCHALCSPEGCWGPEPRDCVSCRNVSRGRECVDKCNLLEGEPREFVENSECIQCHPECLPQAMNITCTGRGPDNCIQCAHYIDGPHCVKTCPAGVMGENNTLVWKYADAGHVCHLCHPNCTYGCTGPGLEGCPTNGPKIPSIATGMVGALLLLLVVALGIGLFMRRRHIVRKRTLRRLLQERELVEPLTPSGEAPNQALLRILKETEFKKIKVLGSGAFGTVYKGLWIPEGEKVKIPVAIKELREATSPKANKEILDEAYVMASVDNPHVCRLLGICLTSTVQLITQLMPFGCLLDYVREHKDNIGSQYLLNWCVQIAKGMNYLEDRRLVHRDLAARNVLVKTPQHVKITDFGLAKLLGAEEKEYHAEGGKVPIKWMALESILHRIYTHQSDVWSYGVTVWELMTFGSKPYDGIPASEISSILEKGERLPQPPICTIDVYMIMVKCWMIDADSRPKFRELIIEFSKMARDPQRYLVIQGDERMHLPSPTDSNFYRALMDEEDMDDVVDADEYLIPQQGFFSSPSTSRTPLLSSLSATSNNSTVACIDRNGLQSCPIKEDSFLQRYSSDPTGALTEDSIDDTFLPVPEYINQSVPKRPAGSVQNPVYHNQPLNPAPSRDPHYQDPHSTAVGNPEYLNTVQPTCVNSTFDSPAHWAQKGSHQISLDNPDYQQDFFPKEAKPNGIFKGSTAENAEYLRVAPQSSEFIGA

SMILES: CNC(=O)c1ccccc1Nc1nc(N/N=C/c2ccc(F)cc2)ncc1Cl [14f, (E)-2-((5-chloro-2–(2-(4-fluorobenzylidene)hydrazineyl)pyrimidin-4-yl)amino)-N-methylbenzamide]
- IC50 ([1]; Homo sapiens, TPC1, 48 h, MTT assay, 48 h, average with SD (n = 3, duplicate), read-out: IC50 (μM), antiproliferative activity against thyroid cancer cells TPC-1): 0.113 ± 0.003 µM
- times more potent than TAE-226 in TPC-1 cells ([1]; ratio of IC50 values, TPC-1 cells): approximately 8.57 times
- IC50 (FAK [2]): 0.035 µM
- IC50 (ALK): 285 nmol/L
- IC50 (EGFR): > 1000 nmol/L
- IC50 (ROS1): 593 nmol/L
- expression level of FAK (FAK [3]): did not affect the expression level of FAK; also recorded: no significant changes
- number of cells positive for EdU [4]: significant reduction
- concentration from which colony formation is discernibly inhibited (TPC-1 cells [5]): ≥ 100 nmol/L
- cell cycle distribution (TPC-1 cells [6]): pronounced G1 phase arrest
- wound healing (cell migration) [7]: significant inhibitory effect on cell migration
- number of cells that traversed through the membrane [8]: significant reduction
- melting point: 176.1 to 177.8 °C
